Like-named read-outs stand apart in the source and are kept apart here.
How the values were obtained:
HIV-1HxBc2 = experiment: microbe, parasite or virus in culture; format: cell-based
HIV-1JR-CSF = experiment: microbe, parasite or virus in culture; format: cell-based
[1] = system: amphotropic murine leukemia virus (AMLV); experiment: microbe, parasite or virus in culture; format: cell-based; settings: single round infection assay, in words
[2] = system: attachment of HIV-1HxBc2 to U87-CD+-CXCR4+ cells; experiment: Temperature shift assay (viral attachment); format: cell-based
Experimental: The entry process can be divided into two temperature-dependent stages, with receptor and coreceptor binding occurring over the temperature range 0-37° C., while the fusion process only occurs at temperatures above 25° C. (Frey, et al., 1995, J. Virol. 69:1462-1472). Based upon differential ranges in temperatures at which binding and fusion/entry occur, a novel assay was developed to detect viral attachment in the presence or absence of inhibitors. Recombinant single-round infective HIV-1 virions are incubated with permissive cells at 4° C. for 2 hours to only allow the initial receptor/coreceptor engagement. Unattached virions, and the compound, are then removed by washing the cells with cold media followed by centrifugation at 1200 rpm for 4 min at 4° C. Cells are replenished with fresh media and transferred to 37° C. After 48 hour of incubation, the level of infection is measured by a luciferase activity as in the standard single-round infection assay. […] Conversely, the small molecule CD4-mimetic NBD-556, which is known to disrupt the gp120-CD4 interaction, reduces the level of infection to 40% of vehicle (DMSO) alone (FIG. 11). […] Moreover, this analysis may be extended to encompass viruses that utilize CCR5 for entry.

HIV-1 isolate AC10.0.29 = experiment: microbe, parasite or virus in culture; format: cell-based; settings: Human immunodeficiency virus 1; isolate AC10.0.29, tropism R5
HIV-1 isolate BaL = experiment: microbe, parasite or virus in culture; format: cell-based; settings: Human immunodeficiency virus 1, tropism R5
HIV-1 isolate JR-FL = experiment: microbe, parasite or virus in culture; format: cell-based; settings: Human immunodeficiency virus 1, tropism R5
[3] = system: HIV-1 92UG037 (subtype A); experiment: HIV-1 replication assay in primary human PBMCs, isolate 92UG037; format: cell-based
[4] = system: HIV-1 98US_MSC5016 (subtype C); experiment: HIV-1 replication assay in primary human PBMCs, isolate 98US_MSC5016; format: cell-based
HIV-2 CDC310319 = experiment: Replication assay in primary human PBMCs, HIV-2 isolate; format: cell-based
in vitro = format: cell-based; settings: human
Experimental: Moreover, this assay was performed using healthy, primary cells to gain further insight into potential toxicities of the compound towards natural target cells. Additionally, as a key issue in the development of novel HIV drugs is their ability to inhibit the replication of genetically diverse isolates (especially isolates from the most globally prevalent subtypes A, B, C, and D), it was chosen to assess the potency of SC26 to inhibit the replication of isolates from subtypes A, B, C, and D in primary human peripheral blood mononuclear cells (PBMCs). Concomitantly, toxicity of SC26 to the PBMCs was assessed using an MTT assay. As can be observed from the IC50 values, the potency of SC26 against different isolates ranges quite dramatically, most likely reflecting differences in the binding site between subtypes.

[5] = system: HIV-1 94US_3393IN (subtype B); experiment: HIV-1 replication assay in primary human PBMCs, isolate 94US_3393IN
[6] = system: HIV-1 91US004 (subtype B); experiment: HIV-1 replication assay in primary human PBMCs, isolate 91US004; format: cell-based
[7] = system: HIV-1 99UG_A07412M1 (subtype D); experiment: HIV-1 replication assay in primary human PBMCs, isolate 99UG_A07412M1; format: cell-based
[8] = Human immunodeficiency virus 1, read-out: IC50 HxBc2
[9] = Human immunodeficiency virus 1, read-out: IC50 JR-CSF
[10] = Human immunodeficiency virus 1, PBMC, human PBMCs

## COc1cnc(Cl)c2[nH]cc(C(=O)C(=O)N3CC4CN(C(=O)c5ccccc5)CC4C3)c12 (stereo not shown) [SC07, 1-(5-benzoylhexahydropyrrolo[3,4-c]pyrrol-2(1H)-yl)-2-(7-chloro-4-methoxy-1H-pyrrolo[2,3-c]pyridin-3-yl)ethane-1,2-dione]
HIV-1HxBc2; [8]
  IC50: 16.8 ± 6.2 µM
HIV-1JR-CSF; [9]
  IC50: 0.98 ± 0.06 µM
[1]
  specificity to HIV-1 (inhibition of AMLV-pseudotyped HIV-1): no inhibition of AMLV-pseudotyped HIV-1

## COc1ncc(OC)c2c(C(=O)C(=O)N3CC4CN(C(=O)c5ccccc5)CC4C3)c[nH]c12 (stereo not shown) [SC08, 1-(5-benzoylhexahydropyrrolo[3,4-c]pyrrol-2(1H)-yl)-2-(4,7-dimethoxy-1H-pyrrolo[2,3-c]pyridin-3-yl)ethane-1,2-dione]
HIV-1HxBc2; [8]
  IC50: 0.19 ± 0.08 µM
HIV-1JR-CSF; read-out: IC50 JR-CSF, single round infection assay
  IC50: 0.09 ± 0.01 µM
[1]
  specificity to HIV-1 (inhibition of AMLV-pseudotyped HIV-1): no inhibition of AMLV-pseudotyped HIV-1

## COc1cnc(-n2cnc(C)n2)c2[nH]cc(C(=O)C(=O)N3CC4C=NN(c5ccccc5)C4C3)c12 (stereo not shown) [SC12, 1-(4-methoxy-7-(3-methyl-1H-1,2,4-triazol-1-yl)-1H-pyrrolo[2,3-c]pyridin-3-yl)-2-(1-phenyl-3a,4,6,6a-tetrahydropyrrolo[3,4-c]pyrazol-5(1H)-yl)ethane-1,2-dione]
[2]; temperature shift assay, in words
  block of viral attachment: does not appear to block viral attachment
HIV-1HxBc2; Human immunodeficiency virus 1
  IC50: 0.024 ± 0.003 µM
HIV-1HxBc2; [8]
  IC50: 0.08 ± 0.02 µM
HIV-1JR-CSF; Human immunodeficiency virus 1
  IC50: 0.013 ± 0.003 µM
HIV-1JR-CSF; [9]
  IC50: 0.008 ± 0.002 µM
HIV-1 isolate AC10.0.29
  IC50: 0.488 ± 0.047 µM
HIV-1 isolate BaL
  IC50: 3.5 ± 0.3 µM
HIV-1 isolate JR-FL
  IC50: 0.106 ± 0.052 µM

## COc1cnc(-n2cnc(C)n2)c2[nH]cc(C(=O)C(=O)N3CC(CCC(=O)c4ccccc4)C3)c12 [SC15, 1-(4-methoxy-7-(3-methyl-1H-1,2,4-triazol-1-yl)-1H-pyrrolo[2,3-c]pyridin-3-yl)-2-(3-(3-oxo-3-phenylpropyl)azetidin-1-yl)ethane-1,2-dione]
HIV-1HxBc2; [8]
  IC50: 0.003 ± 0.0005 µM
HIV-1JR-CSF; [9]
  IC50: 0.002 ± 0.0001 µM

## CC1(C)CC(NC(=O)C(=O)Nc2ccc(Cl)cc2)CC(C)(C)N1 [NBD-556, N1-(4-chlorophenyl)-N2-(2,2,6,6-tetramethyl-4-piperidinyl)-ethanediamide, reference compound]
[2]; virions with cells at 4° C. for 2 hours, wash, 37° C. 48 hour, FIG. 11
  level of infection relative to vehicle (DMSO) alone: 40%

## COc1cnc(-n2cnc(C)n2)c2[nH]cc(C(=O)C(=O)N(C)C3CN(C(=O)c4ccccc4)C3)c12 [SC18, N-(1-benzoylazetidin-3-yl)-2-(4-methoxy-7-(3-methyl-1H-1,2,4-triazol-1-yl)-1H-pyrrolo[2,3-c]pyridin-3-yl)-N-methyl-2-oxoacetamide]
HIV-1HxBc2; [8]
  IC50: 102 ± 160 µM
HIV-1JR-CSF; [9]
  IC50: 1.3 ± 0.2 µM

## COc1ncc(OC)c2c(C(=O)C(=O)N3CC4CCC(c5ccccc5)C4C3)c[nH]c12 (stereo not shown) [SC10, 1-(4,7-dimethoxy-1H-pyrrolo[2,3-c]pyridin-3-yl)-2-(4-phenylhexahydrocyclopenta[c]pyrrol-2(1H)-yl)ethane-1,2-dione]
HIV-1HxBc2; [8]
  IC50: 4.81 ± 4.1 µM
HIV-1JR-CSF; [9]
  IC50: 0.42 ± 0.11 µM

## COc1cnc(-n2cnc(C)n2)c2[nH]cc(C(=O)C(=O)N3CC4CN(C(=O)C5=CCCCC5)CC4C3)c12 (stereo not shown) [SC26, 1-(5-(cyclohex-1-ene-1-carbonyl)hexahydropyrrolo[3,4-c]pyrrol-2(1H)-yl)-2-(4-methoxy-7-(3-methyl-1H-1,2,4-triazol-1-yl)-1H-pyrrolo[2,3-c]pyridin-3-yl)ethane-1,2-dione]
[3]
  Antiviral index (TC50/IC50): >3.97
[3]; [10]
  IC50: 25.2 ± 6.9 µM
HIV-1HxBc2; Human immunodeficiency virus 1
  IC50: 0.0006 ± 1e-05 µM
HIV-1HxBc2; [8]
  IC50: 0.0006 ± 8e-05 µM
[4]
  Antiviral index (TC50/IC50): >25.6
[4]; [10]
  IC50: 3.9 ± 0.8 µM
HIV-2 CDC310319; Human immunodeficiency virus 2, PBMC, HIV-2 CDC310319, human PBMCs
  IC50: > 100 µM
HIV-2 CDC310319; human PBMCs, in words
  effect on the replication of an HIV-2 isolate: no effect
HIV-1JR-CSF; [9]
  IC50: 0.002 ± 0.0001 µM
In vitro
  CC50 at 7 days: > 100 µM
[5]
  Antiviral index (TC50/IC50): >166,666
[6]
  Antiviral index (TC50/IC50): >513
[6]; [10]
  IC50: 0.195 ± 0.012 µM
[7]
  Antiviral index (TC50/IC50): >204
[7]; [10]
  IC50: 0.49 ± 0.06 µM

## COc1cnc(-n2cnc(C)n2)c2[nH]cc(C(=O)C(=O)NCC3CN(C(=O)c4ccccc4)C3)c12 [SC14, N-((1-benzoylazetidin-3-yl)methyl)-2-(4-methoxy-7-(3-methyl-1H-1,2,4-triazol-1-yl)-1H-pyrrolo[2,3-c]pyridin-3-yl)-2-oxoacetamide]
HIV-1HxBc2; [8]
  IC50: 1.2 ± 0.4 µM
HIV-1JR-CSF; [9]
  IC50: 2.5 ± 0.4 µM

## COc1cnc(-n2cnc(C)n2)c2[nH]cc(C(=O)C(=O)N3CC(CSC(=O)c4ccccc4)C3)c12 [SC16, S-((1-(2-(4-methoxy-7-(3-methyl-1H-1,2,4-triazol-1-yl)-1H-pyrrolo[2,3-c]pyridin-3-yl)-2-oxoacetyl)azetidin-3-yl)methyl) benzothioate]
HIV-1HxBc2; [8]
  IC50: 0.15 ± 0.03 µM
HIV-1JR-CSF; [9]
  IC50: 0.1 ± 0.02 µM

— patent US9920073B2, “Compositions useful for inhibiting HIV-1 infection and methods using same” (Drexel University, priority 2013, dated 2018)
